The results in this text go back to patent US20140148368A1, “DRILLING FLUIDS AND DRILLING FLUID ADDITIVES FOR TREATMENT OF BITUMEN IN WELLBORE CUTTINGS” (Marquis Alliance Energy Group Inc., priority 2012, published 2014).

The series in a line: Test Program #1: solubility of dodecanedioic acid powder in bitumen wafer. In kind it is physicochemical. Conditions: ambient temperature, 3 days. The text has this:
The solubility of dodecanedioic acid powder in bitumen was proven in laboratory experiments in which a 30-gram bitumen core sample was compressed at 1,000 pounds per square inch using a compactor, to make bitumen wafers having a diameter of 2.75 cm and a depth (thickness) of 1.8 cm. The bitumen wafer was rolled over carefully in a container with a sufficient quantity of dodecanedioic acid powder. The surface of bitumen wafer was covered with a thin layer of the dodecanedioic acid powder, and the color of the bitumen turned from black to white.

In the case of `O=C(O)CCCCCCCCCCC(=O)O` [dodecanedioic acid], the “solubility of powder in bitumen (visual inspection of powder-covered wafer)” value is “all of the white dodecanedioic acid powder had disappeared”.
